41 molecules from patent US5843750A, “Sorbitol kinase, process for producing the same, and substantially pure microorganism” (priority 1994, dated 1998) can be followed below.

In test [1] the target is T1, sorbitol kinase (Enterobacter ludwigii, UniProt A0AAX3LD49). Format: biochemical, Erwinia sp. SK-472-20 gene expressed in E.coli. Details: no tag mentioned. Particulars: for Relative activity on substrate: sorbitol set at 100%. The method, then: A reaction mixture 1 ml consisting of 100 mM Tris-HCl buffer solution (pH 8.5), 2 mM ATP, 2 mM MgCl2, 5 unit/ml sorbitol-6-phosphatedehydrogenase (refer to referential example 3), 1 mM NAD, 5 units/ml diaphorase (Asahi Chem. Ind. Co.), 0.025% nitrotetrazolium blue, 100 mMD-sorbitol and 0.1% Triton X-100 was incubated with the aliqluot diluted sonicated microbial cells 20 μl at 37° C. for 10 minutes. Reaction was stopped by adding 0.1N HCl 2.0 ml and the optical absorption at 550 nm was measured for determination of sorbitol kinase activity. For control study, sonicated E.coli DH1 harboring pUC118 was treated by the same way as above to determine activity of sorbitol kinase. […] Accordingly, the transformant having sorbitol kinase activity was confirmed. […] SK-472-20, consequently the physico-chemical properties of expressed protein was confirmed.
T1 sequence (A0AAX3LD49 entry or part of it): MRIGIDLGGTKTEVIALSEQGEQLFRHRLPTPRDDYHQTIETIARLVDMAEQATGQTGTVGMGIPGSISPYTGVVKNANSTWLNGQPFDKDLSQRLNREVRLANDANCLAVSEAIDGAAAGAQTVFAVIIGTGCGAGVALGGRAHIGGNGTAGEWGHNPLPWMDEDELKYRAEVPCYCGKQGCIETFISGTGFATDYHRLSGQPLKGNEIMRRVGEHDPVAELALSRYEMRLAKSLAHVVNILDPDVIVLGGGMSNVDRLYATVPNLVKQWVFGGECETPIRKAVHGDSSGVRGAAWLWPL

In test [2] the test system is sorbitol-6-phosphate dehydrogenase. It counts as biochemical, Comamonas sp. SY-77-1. Particulars: for Relative activity (5): substrate specificity of sorbitol-6-phosphate dehydrogenase, substance used as substrate; for Relateive activity: 10 min; for Effect on sorbitol-6-phosphate dehydrogenase activity (in words): 1 mM metal ions. As for the experimental part: Reaction mixture 1 ml consisting of 0.2M Tris-HCl buffer solution (pH 8.0) 0.25 ml, 0.1M sorbitol-6-phosphate 0.2 ml, 10 mM NAD 0.1 ml, 100 U/ml diaphorase (Asahi Chemical Industry Co.) 0.05 ml, 0.25% NTB (nitrotetrazolium blue) 0.1 ml, 10% Triton X-100 0.01 ml and distilled water 0.29 ml was pre-heated at 37° C. for 1 minute. 0.02 ml of enzyme solution was added thereto and incubated for 10 minutes.
0.1N HCl 2 ml was added to stop the reaction, and within 5 minutes optical absorption of the reaction mixture was measured using pass length 1.0 cm cell at 550 nm (As). Optical density of the blank solution of distilled water 0.02 ml in place of the enzyme solution was measured by the same procedure (Ab). Enzyme activity was measured by the difference (As-Ab) between the optical density of the enzyme solution (As) and that of the blank (Ab). A unit of enzyme is defined as an enzyme amount which produces 1μ mole of reduced NAD at 37° C. for 1 minute. Equation is as follows.
Enzyme activity (U/ml)=(As-Ab)×0.795×enzyme dilution rate

The target of test [3] is T1, sorbitol kinase. Format: biochemical, Erwinia sp. SK-472-20. Particulars: for Relative activity as phosphate donor: activity for ATP (final concentration 2 mM) set as 100%. Details: SK-472-20. The method, then: One milliliter of a reaction mixture consisting of 0.2M Tris-HCl buffer solution (pH 8.5) 0.2 ml, 0.1M ATP 0.02 ml, 0.1M MgCl2 0.02 ml, 100 U/ml sorbitol-6-phosphate dehydrogenase (refer to referential example) 0.05 ml, 10 mM NAD 0.1 ml, 100 U/ml diaphorase (Asahi Chemical Ind. Co.) 0.05 ml, 0.25% NTB 0.1 ml, 1M sorbitol 0.1 ml, 10% Triton X-100 0.01 ml and distilled water 0.3 ml was pre-heated at 37° C. for 1 minute, and the enzyme solution 20 μl was added thereto, then the mixture was incubated for 10 minutes.
Reaction was terminated by adding 0.1N HCl 2 ml and optical density of the mixture was measured using 1.0 cm cell at 550 nm within 5 minutes (As). Also optical density of distilled water 20 μl in place of the enzyme solution was measured in the same manner as above as a blank test (Ab). Enzymatic activity is determined by difference in the absorption between the optical density of the enzyme solution (As) and the blank test (Ab), i.e. (As-Ab). A unit of enzyme activity is defined as an amount of enzyme which generate 1 μm of reduced NAD in one minutes at 37° C. and calculated by the following equation.
Enzyme activity (U/ml)=(As-AB)×0.795×dilution rate of enzyme

The mark [4] stands for this setting: enzyme produced by transformant.
Where [5] appears, read: 1 mM metal ion on sorbitol-6-phosphate dehydrogenase, None = 100.
[6] abbreviates: metal ion or chemical modifier 2 mM in the presence of 2 mM magnesium ion, None = 100.
[7] abbreviates: substrate specificity of sorbitol kinase, substance used as substrate.
Setting [8] is: sorbitol-6-phosphate dehydrogenase.

Read-outs that look alike come from different tables or passages of the source.

Broadly, the Km is the concentration of substrate that gives half-maximal velocity.

In the case of `OC[C@H]1O[C@@H](O[C@H]2[C@H](O)[C@@H](O)C(O)O[C@@H]2CO)[C@H](O)[C@@H](O)[C@H]1O` (some centres unmarked) [Lactose], the “Relative activity on substrate” value at sorbitol kinase [1] (setting [4]) worked out at 0%. Moreover, in test [2], the “Relative activity (5)” value was found to be 0.
As for `[Cl-].[Cl-].[Co+2]` [CoCl2], the “Effect on enzyme activity (in words)” value on sorbitol kinase [1] (setting [4]) is reported as “inhibited”. Moreover, in test [2] (setting [5]), the Relateive activity is listed as 100. The “Effect on sorbitol kinase activity (in words)” value on sorbitol kinase [3] (2 mM, Table 2) is “inhibited”. Besides, at sorbitol kinase [3] (setting [6]), the “Relative activity (%)” value is on record as 17.3%.
Consider Xylose, for which the “Relative activity (%)” value on sorbitol kinase [3] (setting [7]) is listed as 0%.
With `O[C@H]1[C@H](O)[C@@H](O)[C@H](O)[C@@H](O)[C@H]1O` [Inositol], at sorbitol kinase [1] (setting [4]), the “Relative activity on substrate” value amounted to 0%.
In test [2] (setting [5]), `[Cl-].[Cl-].[Mg+2]` [MgCl2] displayed a Relateive activity of 100.
In turn, `[Cl-].[Na+]` [NaCl] displayed a Relateive activity in test [2] (sorbitol-6-phosphate dehydrogenase, 1000 µM) of 100. The “Relative activity (%)” value at sorbitol kinase [3] was determined as 112%.
On to `[Cl][Pb][Cl]` [PbCl2], for which the Relateive activity in test [2] (setting [5]) stood at 2. For the same molecule, the “Effect on sorbitol-6-phosphate dehydrogenase activity (in words)” value in test [2] is on record as “Strong inhibition”.
Molecule `[Cl-].[K+]` [KCl] yielded a Relateive activity in test [2] (setting [5]) of 100. Also, the “Effect on sorbitol kinase activity (in words)” value on sorbitol kinase [3] (2 mM, Table 2) is given as “activated”. In addition, the “Relative activity (%)” value on sorbitol kinase [3] (setting [6]) amounted to 180%.
In the case of `OC[C@H]1O[C@H](O[C@H]2O[C@H](CO)[C@@H](O)[C@H](O)[C@H]2O)[C@H](O)[C@@H](O)[C@@H]1O` [Treharose], in test [2], the “Relative activity (5)” value is given as 0.
In the case of Mannose, the “Relative activity on substrate” value on sorbitol kinase [1] (setting [4]) amounted to 0%. In addition, the “Relative activity (5)” value in test [2] worked out at 0. Moreover, the “Relative activity (%)” value on sorbitol kinase [3] (setting [7]) was 0%.
As to `O=C(O)CN(CCN(CC(=O)O)CC(=O)O)CC(=O)O` [EDTA], the “Effect on enzyme activity (in words)” value at sorbitol kinase [1] is listed as “inhibited”. In addition, the “Effect on sorbitol kinase activity (in words)” value at sorbitol kinase [3] was “inhibited”.
Consider `NC(=S)c1ccc[n+]([C@@H]2O[C@H](COP(=O)([O-])OP(=O)(O)OC[C@H]3O[C@@H](n4cnc5c(N)ncnc54)[C@H](O)[C@@H]3O)[C@@H](O)[C@H]2O)c1` [thio NAD], for which the Km in test [2] (setting [8]) turned out to be 140 ± 50 µM.
Turning to `[Ba+2].[Cl-].[Cl-]` [BaCl2], the Relateive activity in test [2] (setting [5]) stood at 32.
Take `OC[C@@H](O)[C@@H](O)[C@H](O)[C@H](O)CO` [Mannitol]: in test [2], the “Relative activity (5)” value was determined as 0.
Take `O=c1ccn([C@@H]2O[C@H](COP(=O)(O)OP(=O)(O)OP(=O)(O)O)[C@@H](O)[C@H]2O)c(=O)[nH]1` [UTP]: the “Relative activity as phosphate donor” value on sorbitol kinase [3] worked out at 3.6%.
Regarding `[Cl][Cu][Cl]` [CuCl2], at sorbitol kinase [1] (setting [4]), the “Effect on enzyme activity (in words)” value is “inhibited”. In test [2] (setting [5]), this molecule registered a Relateive activity of 0. The “Effect on sorbitol-6-phosphate dehydrogenase activity (in words)” value in test [2] is recorded as “Strong inhibition”. In addition, the “Effect on sorbitol kinase activity (in words)” value at sorbitol kinase [3] (2 mM, Table 2) is reported as “inhibited”. The “Relative activity (%)” value on sorbitol kinase [3] (setting [6]) is recorded as 0%.
Regarding `Nc1ncnc2c1ncn2[C@@H]1O[C@H](COP(=O)(O)OP(=O)(O)OP(=O)(O)O)[C@@H](O)[C@H]1O` [ATP], the “Relative activity as phosphate donor” value at sorbitol kinase [3] was 100%.
As for `NC(=O)c1ccc[n+]([C@@H]2O[C@H](COP(=O)([O-])OP(=O)(O)OC[C@H]3O[C@@H](n4cnc5c(N)ncnc54)[C@H](O)[C@@H]3O)[C@@H](O)[C@H]2O)c1` [NAD], the Km in test [2] (setting [8]) was found to be 130 ± 50 µM.
`[Cl-].[Cs+]` [CsCl] yielded a Relateive activity in test [2] (setting [5]) of 100. Further, the “Relative activity (%)” value on sorbitol kinase [3] (setting [6]) was 85%.
`[Cl][Ni][Cl]` [NiCl2]: the “Effect on enzyme activity (in words)” value at sorbitol kinase [1] (setting [4]) is “inhibited”. The Relateive activity in test [2] (setting [5]) was 100. Besides, on sorbitol kinase [3] (2 mM, Table 2), the “Effect on sorbitol kinase activity (in words)” value is recorded as “inhibited”. Moreover, the “Relative activity (%)” value on sorbitol kinase [3] (setting [6]) is 14.5%.
Turning to `O=C(COP(=O)(O)O)[C@@H](O)[C@H](O)[C@H](O)COP(=O)(O)O` [fructose-1,6-diphosphate], the “Relative activity (5)” value in test [2] was found to be 0.
As to `C=C(OP(=O)(O)O)C(=O)O` [phosphoenolpyruvate], the “Utilization as phosphate donor” value is recorded as “substantially not” at sorbitol kinase [1] (setting [4]) and “No substantial utilization” at sorbitol kinase [3] (phosphoenolpyruvate used in place of ATP in the enzyme assay).
Consider `[N-]=[N+]=[N-].[Na+]` [NaN3], for which the “Relative activity (%)” value at sorbitol kinase [3] (setting [6]) is 123%.
On to `OC[C@H]1O[C@@](CO)(O[C@H]2O[C@H](CO)[C@@H](O)[C@H](O)[C@H]2O)[C@@H](O)[C@@H]1O` [Saccharose], for which the “Relative activity on substrate” value at sorbitol kinase [1] (setting [4]) was 0%. Moreover, in test [2], the “Relative activity (5)” value stood at 0.
For the molecule `O=P(O)(O)OC[C@@H](O)[C@@H](O)[C@H](O)[C@@H](O)CO` [sorbitol-6-phosphate], the Km in test [2] (setting [8]) turned out to be 2000 ± 500 µM. For the same molecule, the “Relative activity (5)” value in test [2] is on record as 100.
Take `[Cl-].[Li+]` [LiCl]: in test [2] (setting [5]), the Relateive activity amounted to 100. For the same molecule, on sorbitol kinase [3] (setting [6]), the “Relative activity (%)” value is 74.3%.
`O=P(O)(O)OC1O[C@H](CO)[C@H](O)[C@H](O)[C@H]1O` (some centres unmarked) [Galactose-1-phosphate]: the “Relative activity (5)” value in test [2] was 0.
For `O=c1[nH]cnc2c1ncn2[C@@H]1O[C@H](COP(=O)(O)OP(=O)(O)OP(=O)(O)O)[C@@H](O)[C@H]1O` [ITP], on sorbitol kinase [3], the “Relative activity as phosphate donor” value worked out at 40.5%.
Turning to `[Cl][Mn][Cl]` [MnCl2], the Relateive activity in test [2] (setting [5]) is 40.
With `Nc1nc2c(ncn2[C@@H]2O[C@H](COP(=O)(O)OP(=O)(O)OP(=O)(O)O)[C@@H](O)[C@H]2O)c(=O)[nH]1` [GTP], the “Relative activity as phosphate donor” value on sorbitol kinase [3] came out at 11.8%.
With `[Cl-].[Cl-].[Zn+2]` [ZnCl2], the Relateive activity in test [2] (setting [5]) is recorded as 6.
For Galactose, the “Relative activity on substrate” value at sorbitol kinase [1] (setting [4]) came to 0%. Further, in test [2], the “Relative activity (5)” value was 0. In addition, on sorbitol kinase [3] (setting [7]), the “Relative activity (%)” value was 0%.
For the molecule `O=P(O)(O)OC[C@H]1OC(O)[C@H](O)[C@@H](O)[C@H]1O` (some centres unmarked) [galactose-6-phosphate], the “Relative activity (5)” value in test [2] is 0.
As to `O=P(O)(O)OC[C@H]1OC(O)[C@H](O)[C@@H](O)[C@@H]1O` (some centres unmarked) [Glucose-6-phosphate], the “Relative activity (5)” value in test [2] was 0.
2-deoxyglucose: at sorbitol kinase [3] (setting [7]), the “Relative activity (%)” value came out at 0%.
For the molecule `[Ca+2].[Cl-].[Cl-]` [CaCl2], the “Effect on enzyme activity (in words)” value at sorbitol kinase [1] (setting [4]) is recorded as “activated”. For the same molecule, the Relateive activity in test [2] (setting [5]) is given as 100. Moreover, the “Relative activity (%)” value at sorbitol kinase [3] (setting [6]) was found to be 44.6%.
`O=P(O)(O)OC1O[C@H](CO)[C@@H](O)[C@H](O)[C@H]1O` (some centres unmarked) [glucose-1-phosphate]: in test [2], the “Relative activity (5)” value worked out at 0.
As for `OC[C@@H](O)[C@@H](O)[C@H](O)[C@@H](O)CO` [Sorbitol], the “Relative activity on substrate” value at sorbitol kinase [1] (setting [4]) was 100%.
Consider Glucose, for which the “Relative activity on substrate” value on sorbitol kinase [1] (setting [4]) was determined as 0%. Besides, in test [2], the “Relative activity (5)” value stood at 0. Further, the “Relative activity (%)” value on sorbitol kinase [3] (setting [7]) is 0%.
In the case of `O=C(CO)[C@@H](O)[C@H](O)[C@H](O)CO` [Fructose], the “Relative activity on substrate” value on sorbitol kinase [1] (setting [4]) was 0%. For the same molecule, in test [2], the “Relative activity (5)” value is 0.
`OC[C@H]1O[C@H](O[C@H]2[C@H](O)[C@@H](O)[C@H](O)O[C@@H]2CO)[C@H](O)[C@@H](O)[C@@H]1O` [Maltose]: the “Relative activity on substrate” value on sorbitol kinase [1] (setting [4]) is listed as 0%.
